Data reported in EP0068563A2, “Heterocyclic acetic acid compounds and compositions for treating bone diseases” (THE PROCTER & GAMBLE COMPANY, priority 1981, dated 1983).

Experiments:
[1] = system: Weanling male Sprague-Dawley derived rats; experiment: in vivo periosteal and endosteal bone apposition rates and endosteal resorption rates (tetracycline/DCAF double label, tibial sections); parameters: EBAR (endosteal bone apposition rate) / ERR (endosteal resorption rate): unit not given here; settings: for ERR (endosteal resorption rate) / EBAR (endosteal bone apposition rate) / P BAR (periosteal bone apposition rate): subcutaneous daily, 10 days, rat tibia; for ERR (endosteal resorption rate): control 3.6; for EBAR (endosteal bone apposition rate): control 4.0; for P BAR (periosteal bone apposition rate): control 14.7
Excerpt: The following test was used to establish in vivo periosteal and endosteal bone apposition rates and endosteal resorption rates. The test method is a modification of the method of Baylink, et al., J. Clin. Invest.
Weanling male Sprague-Dawley derived rats weighing 50-60 grams (Charles River Breeding Labs, Wilmington, Massachusetts) were allowed 2-3 days to adapt to the laboratory environment before receiving any treatment. Throughout the adaptation and experimental periods the animals were allowed free access to tap water and food (Purina Lab Rat Chow, Ralston Purina Company, St. Louis, Missouri).
On the first day of the experiment all animals were given a subcutaneous injection of tetracycline hydrochloride at a dose of 20 mg/kg to label the skeleton. Test compound and saline (control animals) treatments were also started on the first day of the experiment. They were given subcutaneously under skin flap where the rear legs join the body using alternating sides each day. Since these animals were rapidly growing, body weights were taken daily and dosage adjusted accordingly.
Seven days after the animals received tetracycline they were given a subcutaneous injection of (2,4 bis)N-N'-di (carboxymethyl)amino methylfluorescein (DCAF) at a dose of 20 mg/kg to provide a second skeletal label.
Ten days after treatments were initiated, the animals were sacrificed by carbon dioxide asphyxiation and their left and right tibias and femurs taken and placed in 70% ethanol until they were further processed.
The test comoounds were given as solutions preoared in distilled water, and the pH was adjusted to 7.4. Solution concentrations were adjusted so that constant volumes of 0.2 ml/100 grams of body weight could be maintained for all animals.
Dose volumes were […] of body weight.
DCAF, (2,4-bis)-N,N'di(carboxymethyl) amino methyl fluorescein, Nutritional Biochemicals Corporation, Cleveland, Ohio was given as a 1% solution in 2% sodium bicarbonate and 0.8% dextrose. This solution was filtered prior to administration to remove any undissolved particles. Dose volumes of the DCAF solution were 0.2 ml/100 grams of body weight.
The left tibiae were blocked stained with Villanueva's stain, embedded in methyl methacrylate and sectioned at 75-100 u. Cross sections were prepared from the shaft of the tibia where it is joined by the distal portion of the fibula.
These parameters were measured in tibial cross sections and in longitudinal sections through the proximal tibial epiphysis with a 5 mm micrometer which was superimposed optically over the section by placing it in the eyepiece of a microscope. Conversion of the values obtained to actual widths was established with a stage micrometer.
The width between fluorescent labels on the periosteal surface was established at 100x by making 4 measurements at 90. degree intervals around the circumference of the labeled area. Measurements were made from the middle of one label to the middle of' the next. A mean value was then established for each surface and multiplied times the conversion factor to obtain the actual distance in microns. Bone apposition rates were then calculated by dividing this value by the number of days over which the fluorescent labels were given (i.e. 7 days).
Endosteal bone apposition was established at 100x by making 4 measurements at equidistant points across the section from the bottom of the plate to the closest fluorescent label (the last label administered). A mean value was then established and multiplied times a conversion factor to obtain the actual distance in microns.
A mean value was then established and multiplied times a conversion factor to obtain the actual distance in microns. Bone resorption rates were calculated by dividing this value by number of days over which the experiment was conducted (i.e. 10 days).

Fetal rat bone = experiment: PGE2 stimulated in vitro bone resorption in the fetal long bone system (45Ca release); format: cell-based; settings: versus control cultures; for inhibition at 390 µM: concentration 0.39 mM; for inhibition at 1560 µM: concentration 1.56 mM
Procedure: Fetal rat bone was cultured in the medium described in this reference. Bone resorption was stimulated by addition of prostaglandin, PGE2, and measured by the release of previously incorporated ^45Ca into the medium and by changes in the total bone calcium content.
PGE2 Stimulated Bone Resorption in the Fetal Long Bone System

| SMILES | ERR (endosteal resorption rate) ([1]; dose 5 uM) | EBAR (endosteal bone apposition rate) ([1]; dose 5 uM) | P BAR (periosteal bone apposition rate) ([1]; dose 5 uM) | ERR (endosteal resorption rate) ([1]; dose 16 uM) | EBAR (endosteal bone apposition rate) ([1]; dose 16 uM) | P BAR (periosteal bone apposition rate) ([1]; dose 16 uM) | bone resorption (conclusion in words) ([1]; summary of the rat test table) | inhibition at 390 µM (Fetal rat bone) [%] | inhibition at 1560 µM (Fetal rat bone) [%] | ERR (endosteal resorption rate) ([1]; dose 80 uM) | EBAR (endosteal bone apposition rate) ([1]; dose 80 uM) | P BAR (periosteal bone apposition rate) ([1]; dose 80 uM) |
| --- | --- | --- | --- | --- | --- | --- | --- | --- | --- | --- | --- | --- |
| O=C(O)c1cc2ccccc2s1 [BTCA, benzothiophene-2-carboxylic acid] | 2.9 | 3.5 | 18.2 | 3.3 | 3.4 | 16.2 | does not significantly reduce bone resorption | – | – | – | – | – |
| O=C(O)Cc1cc2ccccc2s1 [BTAA, benzothiophene-2-acetic acid] | 1.2 | 3.5 | 16.0 | 0.9 | 3.9 | 18.1 | – | – | – | – | – | – |
| O=C(O)c1cccs1 [Thiophene-2-Carboxylic Acid, reference compound] | – | – | – | – | – | – | – | 43 | 47.8 | – | – | – |
| COc1ccc2[nH]c(C(=O)O)cc2c1 [5-Methoxyindole-2-Carboxylic Acid] | – | – | – | – | – | – | – | 47.5 | 80.1 | – | – | – |
| O=P(O)(O)C(Cl)(Cl)P(=O)(O)O [Cl2MDP, dichloro-methylene-diphosphonate] | – | – | – | 1.3 | 3.2 | 14.8 | – | – | – | 0 | 3.1 | 14.8 |
| O=C(O)Cc1cccs1 [Thiophene-2-Acetic Acid] | – | – | – | – | – | – | – | 47.8 | 107 | – | – | – |
| O=C(O)Cc1nc2ccccc2[nH]1 [BMZAA, benzimidazole-2-acetic acid] | 1.0 | 3.8 | 15.5 | 1.5 | 3.4 | 18.1 | – | – | – | – | – | – |
